Reference: patent publication US11033539B2, “Compounds of formulas (VII), (VIII), (IX), (XI), (XII), (XIII), and (XIV) as muscarinic receptor 4(M4) antagonists for treating neurological diseases” (Neurocrine Biosciences, Inc., priority 2015, dated 2021)

Each molecule was assayed against human M4 receptor (Homo sapiens (Human), UniProt P08173) (assay: Radioligand (tritiated N-methylscopolamine) binding assay, M4). Conditions: Ki against the M4 receptor; membranes from CHO cells expressing human M4; tritiated N-methylscopolamine 1.5 nM; read-out: Ki.
human M4 receptor, sequence (P08173 whole entry): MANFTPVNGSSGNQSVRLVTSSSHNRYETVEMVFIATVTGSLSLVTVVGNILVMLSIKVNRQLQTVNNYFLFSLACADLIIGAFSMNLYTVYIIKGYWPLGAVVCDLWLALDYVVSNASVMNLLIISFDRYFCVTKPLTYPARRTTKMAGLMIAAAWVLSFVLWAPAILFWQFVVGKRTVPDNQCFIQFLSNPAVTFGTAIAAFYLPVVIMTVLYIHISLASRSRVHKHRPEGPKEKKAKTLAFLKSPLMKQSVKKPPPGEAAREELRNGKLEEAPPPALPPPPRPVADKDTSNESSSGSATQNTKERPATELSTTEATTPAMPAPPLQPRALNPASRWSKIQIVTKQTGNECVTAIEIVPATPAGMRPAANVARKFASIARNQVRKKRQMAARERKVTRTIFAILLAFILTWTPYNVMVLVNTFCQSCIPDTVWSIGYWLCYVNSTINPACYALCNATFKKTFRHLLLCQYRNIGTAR
Method in brief: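 Ki from displacement of 1.5 nM [3H]N-methylscopolamine on membranes of CHO cells expressing each human receptor. Twelve compound concentrations (10 μM to […]), 90 min at 37° C in 50 mM HEPES, 100 mM NaCl, 5 mM MgCl2, 1 mM EDTA, pH 7.4. Bound ligand was captured by PEI-treated glass-fiber filtration and counted.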

| SMILES | Ki |
| --- | --- |
| N#Cc1cc(N2CCC(C(=O)NCCC3(O)CCN(Cc4ccccc4)CC3)CC2)ccc1F [9-44, N-[2-(1-benzyl-4-hydroxypiperidin-4-yl)ethyl]-1-(3-cyano-4-fluorophenyl)piperidine-4-carboxamide] | 10 to 100 nM |
| O=C(NCCC1CCN(Cc2ccccc2)CC1)C1CCN(c2ccc(OC(F)(F)F)cn2)CC1 [10-1, N-[2-(1-benzylpiperidin-4-yl)ethyl]-1-[5-(trifluoromethoxy)pyridin-2-yl]piperidine-4-carboxamide] | 10 to 100 nM |
| O=C(NCCC1CCN(Cc2ccccc2)CC1)N1CCC(O)(c2ccc(Cl)cc2)CC1 [8-23, N-[2-(1-benzylpiperidin-4-yl)ethyl]-4-(4-chlorophenyl)-4-hydroxypiperidine-1-carboxamide] | 100 to 1000 nM |
| O=C(NCCC1CCN(Cc2ccccc2)CC1)C1(F)CCN(c2ccc(OC(F)(F)F)cc2)CC1 [10-55, N-[2-(1-benzylpiperidin-4-yl)ethyl]-4-fluoro-1-[4-(trifluoromethoxy)phenyl]piperidine-4-carboxamide] | 10 to 100 nM |
| Cc1nc(-c2ccc(Cl)cc2)sc1C(=O)NCCC1CCN(Cc2ccccc2)CC1 [9-4, N-[2-(1-benzylpiperidin-4-yl)ethyl]-2-(4-chlorophenyl)-4-methyl-1,3-thiazole-5-carboxamide] | 100 to 1000 nM |
| O=C(NCCC1CCN(Cc2ccccc2)CC1)c1ccc(-c2ccc(C(F)(F)F)cc2)cc1 [9-16, N-[2-(1-benzylpiperidin-4-yl)ethyl]-4-[4-(trifluoromethyl)phenyl]benzamide] | 10 to 100 nM |
| O=C(NCCC1CCN(Cc2ccccc2)CC1)N1CCC(N2Cc3ccccc3NC2=O)CC1 [8-44, N-[2-(1-benzylpiperidin-4-yl)ethyl]-4-(2-oxo-1,2,3,4-tetrahydroquinazolin-3-yl)piperidine-1-carboxamide] | 100 to 1000 nM |
| COc1ccc(N2CCN(C(=O)NCCC3CCN(Cc4ccccc4)CC3)CC2C)cc1 (stereo not drawn) [4-56, N-[2-(1-benzylpiperidin-4-yl)ethyl]-4-(4-methoxyphenyl)-3-methylpiperazine-1-carboxamide] | 100 to 1000 nM |
| CCN(C)C(=O)c1cc(C)nc(N2CCN(C(=O)NCCC3CCN(Cc4ccccc4)CC3)[C@H](C)C2)n1 [27-18] | 100 to 1000 nM |
| Cc1nc(-c2ccc(F)nc2)sc1C(=O)NCCC1CCN(Cc2ccccc2)CC1 [9-57, N-[2-(1-benzylpiperidin-4-yl)ethyl]-2-(6-fluoropyridin-3-yl)-4-methyl-1,3-thiazole-5-carboxamide] | 100 to 1000 nM |
| C[C@@H]1CN(c2ccc(C#N)cc2F)CCN1C(=O)NCCC1CCN(Cc2ccccc2)CC1 [4-43, (2R)-N-[2-(1-benzylpiperidin-4-yl)ethyl]-4-(4-cyano-2-fluorophenyl)-2-methylpiperazine-1-carboxamide] | 10 to 100 nM |
| N#Cc1cc(N2CCC(O)(C(=O)NCCC3CCN(Cc4ccccc4)CC3)CC2)ccc1OC(F)(F)F [10-36, N-[2-(1-benzylpiperidin-4-yl)ethyl]-1-[3-cyano-4-(trifluoromethoxy)phenyl]-4-hydroxypiperidine-4-carboxamide] | 10 to 100 nM |
| O=C(NCCC1CCN(Cc2ccccc2)CC1)C1CCN(c2ccc(Cl)nc2)CC1 [10-27, N-[2-(1-benzylpiperidin-4-yl)ethyl]-1-(6-chloropyridin-3-yl)piperidine-4-carboxamide] | 100 to 1000 nM |
| O=C(NCCC1(CO)CCN(Cc2ccccc2)CC1)C1CCN(c2cccc(OC(F)(F)F)c2)CC1 [9-11, N-{2-[1-benzyl-4-(hydroxymethyl)piperidin-4-yl]ethyl}-1-[3-(trifluoromethoxy)phenyl]piperidine-4-carboxamide] | 10 to 100 nM |
| C[C@@H]1CN(c2ncc(C(=O)NC3CC3)cn2)C[C@H](C)N1C(=O)NCCC1CCN(Cc2ccccc2)CC1 [27-1, 2-[(3R,5S)-4-{[2-(1-benzylpiperidin-4-yl)ethyl]carbamoyl}-3,5-dimethylpiperazin-1-yl]-N-cyclopropylpyrimidine-5-carboxamide] | 10 to 100 nM |
| COc1nc(N2CCN(C(=O)NCCC3CCN(Cc4ccccc4)CC3)[C@H](C)C2)ncc1C#N [5-16, (2R)-N-[2-(1-benzylpiperidin-4-yl)ethyl]-4-(5-cyano-4-methoxypyrimidin-2-yl)-2-methylpiperazine-1-carboxamide] | 10 to 100 nM |
| CC(C)N(C)C(=O)c1cnc(N2C[C@@H](C)N(C(=O)NCCC3CCN(Cc4ccccc4)CC3)[C@@H](C)C2)nc1 [27-3] | 100 to 1000 nM |
| N#Cc1cccc(N2CCC(C(=O)NCCC3CCN(Cc4ccccc4)CC3)CC2)c1 [10-77, N-[2-(1-benzylpiperidin-4-yl)ethyl]-1-(3-cyanophenyl)piperidine-4-carboxamide] | 10 to 100 nM |
| C[C@@H]1CN(c2ncc(C(F)(F)F)cn2)CCN1C(=O)NCCC1CCN(Cc2ccccc2F)CC1 [6-38, (2R)-N-(2-{1-[(2-fluorophenyl)methyl]piperidin-4-yl}ethyl)-2-methyl-4-[5-(trifluoromethyl)pyrimidin-2-yl]piperazine-1-carboxamide] | 10 to 100 nM |
| COc1cc(OC(F)(F)F)cc(N2CCC(C(=O)NCCC3CCN(Cc4ccccc4)CC3)CC2)c1 [10-29, N-[2-(1-benzylpiperidin-4-yl)ethyl]-1-[3-methoxy-5-(trifluoromethoxy)phenyl]piperidine-4-carboxamide] | 10 to 100 nM |

| SMILES | Ki |
| --- | --- |
| COC1(C(=O)NCCC2CCN(Cc3ccccc3)CC2)CCN(c2ccc(OC(F)(F)F)cc2)CC1 [10-38, N-[2-(1-benzylpiperidin-4-yl)ethyl]-4-methoxy-1-[4-(trifluoromethoxy)phenyl]piperidine-4-carboxamide] | 10 to 100 nM |
| COC(=O)c1cc(C)nc(N2CCN(C(=O)NCCC3CCN(Cc4ccccc4)CC3)[C@H](C)C2)n1 [5-12, methyl 2-[(3R)-4-{[2-(1-benzylpiperidin-4-yl)ethyl]carbamoyl}-3-methylpiperazin-1-yl]-6-methylpyrimidine-4-carboxylate] | 100 to 1000 nM |
| O=C(NCCC1CCN(Cc2ccccc2)CC1)N1CCN(c2ccc(OC(F)(F)F)cc2)CC1 [8-8, N-[2-(1-benzylpiperidin-4-yl)ethyl]-4-[4-(trifluoromethoxy)phenyl]piperazine-1-carboxamide] | 10 to 100 nM |
| COC1(C(=O)NCCC2CCN(Cc3ccccc3)CC2)CCN(c2ccc(OC(F)(F)F)cn2)CC1 [10-63, N-[2-(1-benzylpiperidin-4-yl)ethyl]-4-methoxy-1-[5-(trifluoromethoxy)pyridin-2-yl]piperidine-4-carboxamide] | 100 to 1000 nM |
| N#Cc1cccc(N2CCC(NC(=O)NCCC3CCN(Cc4ccccc4)CC3)CC2)c1 [8-40, 3-[2-(1-benzylpiperidin-4-yl)ethyl]-1-[1-(3-cyanophenyl)piperidin-4-yl]urea] | 100 to 1000 nM |
| COc1ccc(N2CCN(C(=O)NCCC3CCN(Cc4ccccc4)CC3)[C@H](C)C2)cc1F [4-70, (2R)-N-[2-(1-benzylpiperidin-4-yl)ethyl]-4-(3-fluoro-4-methoxyphenyl)-2-methylpiperazine-1-carboxamide] | 10 to 100 nM |
| O=C(NC1CCN(c2ccc(OC(F)(F)F)cc2)CC1)OCCC1CCN(Cc2ccccc2)CC1 [12-11, 2-(1-benzylpiperidin-4-yl)ethyl N-{1-[4-(trifluoromethoxy)phenyl]piperidin-4-yl}carbamate] | 10 to 100 nM |
| C[C@@H]1CN(c2nccc(C#N)n2)CCN1C(=O)NCCC1CCN(Cc2ccccc2)CC1 [3-15, (2R)-N-[2-(1-benzylpiperidin-4-yl)ethyl]-4-(4-cyanopyrimidin-2-yl)-2-methylpiperazine-1-carboxamide] | 10 to 100 nM |
| O=C(NCCC1CCN(Cc2ccccc2O)CC1)c1ccc(Oc2ccccc2)cc1 [11-5, N-(2-{1-[(2-hydroxyphenyl)methyl]piperidin-4-yl}ethyl)-4-phenoxybenzamide] | 100 to 1000 nM |
| CN(CCNC(=O)c1ccc(-c2ccccc2)cc1)[C@@H]1CCN(Cc2ccccc2)C1 [9-38, N-(2-{[(3R)-1-benzylpyrrolidin-3-yl](methyl)amino}ethyl)-4-phenylbenzamide] | 100 to 1000 nM |
| O=C(NCCC1CCN(Cc2cccc3c2OCC3)CC1)C1CCN(c2ccc(OC(F)(F)F)cc2)CC1 [11-29, N-{2-[1-(2,3-dihydro-1-benzofuran-7-ylmethyl)piperidin-4-yl]ethyl}-1-[4-(trifluoromethoxy)phenyl]piperidine-4-carboxamide] | 100 to 1000 nM |
| COc1cccc(N2CCN(C(=O)NCCC3CCN(Cc4ccccc4)CC3)[C@H](C)C2)n1 [4-51, (2R)-N-[2-(1-benzylpiperidin-4-yl)ethyl]-4-(6-methoxypyridin-2-yl)-2-methylpiperazine-1-carboxamide] | 100 to 1000 nM |
| Cc1c(C(=O)NCCC2CCN(Cc3ccncc3)CC2)cnc2cc(-c3cccc(C(F)(F)F)c3)nn12 [19-5] | 100 to 1000 nM |
| O=C(NCCC1CCN(Cc2ccccc2)CC1)N1CCC(c2ccccc2F)CC1 [8-32, N-[2-(1-benzylpiperidin-4-yl)ethyl]-4-(2-fluorophenyl)piperidine-1-carboxamide] | 100 to 1000 nM |
| Cc1c(C(=O)NCCC2CCN(CC3CCCCC3)CC2)cnc2cc(-c3cccc(C(F)(F)F)c3)nn12 [19-3] | 100 to 1000 nM |
| C[C@@H]1CN(c2ncc(C(F)(F)F)cn2)CCN1C(=O)NCCC1CCN(Cc2ccncc2)CC1 [6-31, (2R)-2-methyl-N-{2-[1-(pyridin-4-ylmethyl)piperidin-4-yl]ethyl}-4-[5-(trifluoromethyl)pyrimidin-2-yl]piperazine-1-carboxamide] | 100 to 1000 nM |
| O=C(NCCC1CCN(Cc2ccccc2)CC1)C1(O)CCN(c2cc(F)ccc2F)CC1 [10-64, N-[2-(1-benzylpiperidin-4-yl)ethyl]-1-(2,5-difluorophenyl)-4-hydroxypiperidine-4-carboxamide] | 100 to 1000 nM |
| C=CCNC(=O)c1cnc(N2C[C@@H](C)N(C(=O)NCCC3CCN(Cc4ccccc4)CC3)[C@@H](C)C2)nc1 [27-4] | 100 to 1000 nM |
| C[C@@H]1CN(c2ncc(Cl)c(Cl)n2)CCN1C(=O)NCCC1CCN(Cc2ccccc2)CC1 [5-3, (2R)-N-[2-(1-benzylpiperidin-4-yl)ethyl]-4-(4,5-dichloropyrimidin-2-yl)-2-methylpiperazine-1-carboxamide] | 100 to 1000 nM |
